Consider three molecules from article PMC4492579, “Potent and Selective Triazole-Based Inhibitors of the Hypoxia-Inducible Factor Prolyl-Hydroxylases with Activity in the Murine Brain” (PLoS ONE, 2015).

One assay addresses PHD2 (Homo sapiens, UniProt Q9GZT9). Description: Competition-based NMR reporter ligand displacement assay ([13C]-2OG / [13C]-CODD). In kind it is binding. The settings on record: 50 μM apo-PHD2, 400 μM Zn(II), 400 μM competitor. On the procedure:
For 2OG displacement assays, selective ^1H-^13C 1D-HSQC experiments were conducted at 700 MHz using a Bruker Avance III spectrometer equipped with an inverse TCI cryoprobe optimized for ^1H observation. The CLIP-HSQC sequence was used (without ^13C decoupling). Typical experimental parameters were as follows: acquisition time 0.58 s, relaxation delay 2 s, number of transients 256−1600. The 1JCH was set to 160 Hz. For the selective version of the experiment, a 6.8 ms Q3 180 degree pulse was used, and selective irradiation was applied at the appropriate [^13C] chemical shift. Three millimeter MATCH tubes with a 160 μL final sample volume were used. Solutions were buffered using Tris-D11 50 mM (pH 7.5) dissolved in 90% H2O and 10% D2O. Assays were conducted at 298 K in solutions typically containing 50 μM apo-PHD2, 400 μM Zn(II), 50 μM 1,2,3,4-[^13C]-2OG or [^13C]-labeled CODD (uniformly [^13C]-labeled at proline-564) and 400 μM competitor (except unlabeled CODD competitor used at 800 μM). Selective irradiation was applied at 30.5 ppm for [^13C]-2OG and 24.25 ppm for [^13C]-labeled CODD. Percentage displacement was calculated according to equation: (I−I0)/(Iblank−I0) where I 0 is the intensity of the reporter in the presence of protein but without inhibitor, I is the intensity of the reporter in the presence of protein and inhibitor, and I blank is the intensity of the reporter without protein or inhibitor.
The results reveal that the previously described inhibitor IOX2 displaces 2OG from PHD2 (S3A Fig), consistent with its predicted binding mode. […] Previous crystallographic studies have shown that the HIF substrate can still bind even when the 2OG active site is occupied by some, but not all, inhibitors.

A further assay addresses T1, JMJD2A (KDM4A) (Homo sapiens, UniProt O75164).
T1 sequence (O75164 1-1064): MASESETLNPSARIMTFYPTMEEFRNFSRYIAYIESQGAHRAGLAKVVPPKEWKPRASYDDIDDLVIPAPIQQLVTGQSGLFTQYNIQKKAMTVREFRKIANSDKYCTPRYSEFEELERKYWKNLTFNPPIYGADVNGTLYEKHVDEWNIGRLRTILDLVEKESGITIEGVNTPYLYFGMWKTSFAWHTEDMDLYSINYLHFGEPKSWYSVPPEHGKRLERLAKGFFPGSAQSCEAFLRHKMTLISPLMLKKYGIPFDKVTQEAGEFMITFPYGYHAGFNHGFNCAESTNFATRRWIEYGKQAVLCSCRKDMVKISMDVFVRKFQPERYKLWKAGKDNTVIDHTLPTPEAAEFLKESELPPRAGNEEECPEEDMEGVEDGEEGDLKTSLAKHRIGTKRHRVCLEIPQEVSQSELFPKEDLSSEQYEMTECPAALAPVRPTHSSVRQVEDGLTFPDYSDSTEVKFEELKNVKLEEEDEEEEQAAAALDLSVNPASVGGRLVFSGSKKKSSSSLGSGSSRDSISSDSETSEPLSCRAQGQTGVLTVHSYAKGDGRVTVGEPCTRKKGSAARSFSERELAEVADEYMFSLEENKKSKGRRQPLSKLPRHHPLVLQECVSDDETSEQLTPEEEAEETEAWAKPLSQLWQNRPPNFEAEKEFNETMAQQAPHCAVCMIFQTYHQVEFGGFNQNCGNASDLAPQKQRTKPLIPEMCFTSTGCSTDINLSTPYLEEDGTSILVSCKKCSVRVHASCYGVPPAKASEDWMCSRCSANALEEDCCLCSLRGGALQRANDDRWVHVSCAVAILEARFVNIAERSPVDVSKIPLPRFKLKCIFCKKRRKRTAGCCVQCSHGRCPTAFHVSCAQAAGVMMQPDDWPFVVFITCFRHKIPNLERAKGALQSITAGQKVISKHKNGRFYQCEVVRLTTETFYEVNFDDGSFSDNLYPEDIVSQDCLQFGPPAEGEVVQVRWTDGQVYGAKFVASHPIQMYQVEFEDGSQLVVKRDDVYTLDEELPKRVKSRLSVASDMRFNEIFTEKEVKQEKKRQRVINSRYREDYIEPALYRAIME
The assay can be described thus: KDM AlphaScreen assay, JMJD2A. (Bead proximity is the source of the signal in Alpha formats.)

Another assay concerns the target T2, JMJD2C (KDM4C) (Homo sapiens, UniProt Q9H3R0).
T2 sequence (Q9H3R0 1-1056): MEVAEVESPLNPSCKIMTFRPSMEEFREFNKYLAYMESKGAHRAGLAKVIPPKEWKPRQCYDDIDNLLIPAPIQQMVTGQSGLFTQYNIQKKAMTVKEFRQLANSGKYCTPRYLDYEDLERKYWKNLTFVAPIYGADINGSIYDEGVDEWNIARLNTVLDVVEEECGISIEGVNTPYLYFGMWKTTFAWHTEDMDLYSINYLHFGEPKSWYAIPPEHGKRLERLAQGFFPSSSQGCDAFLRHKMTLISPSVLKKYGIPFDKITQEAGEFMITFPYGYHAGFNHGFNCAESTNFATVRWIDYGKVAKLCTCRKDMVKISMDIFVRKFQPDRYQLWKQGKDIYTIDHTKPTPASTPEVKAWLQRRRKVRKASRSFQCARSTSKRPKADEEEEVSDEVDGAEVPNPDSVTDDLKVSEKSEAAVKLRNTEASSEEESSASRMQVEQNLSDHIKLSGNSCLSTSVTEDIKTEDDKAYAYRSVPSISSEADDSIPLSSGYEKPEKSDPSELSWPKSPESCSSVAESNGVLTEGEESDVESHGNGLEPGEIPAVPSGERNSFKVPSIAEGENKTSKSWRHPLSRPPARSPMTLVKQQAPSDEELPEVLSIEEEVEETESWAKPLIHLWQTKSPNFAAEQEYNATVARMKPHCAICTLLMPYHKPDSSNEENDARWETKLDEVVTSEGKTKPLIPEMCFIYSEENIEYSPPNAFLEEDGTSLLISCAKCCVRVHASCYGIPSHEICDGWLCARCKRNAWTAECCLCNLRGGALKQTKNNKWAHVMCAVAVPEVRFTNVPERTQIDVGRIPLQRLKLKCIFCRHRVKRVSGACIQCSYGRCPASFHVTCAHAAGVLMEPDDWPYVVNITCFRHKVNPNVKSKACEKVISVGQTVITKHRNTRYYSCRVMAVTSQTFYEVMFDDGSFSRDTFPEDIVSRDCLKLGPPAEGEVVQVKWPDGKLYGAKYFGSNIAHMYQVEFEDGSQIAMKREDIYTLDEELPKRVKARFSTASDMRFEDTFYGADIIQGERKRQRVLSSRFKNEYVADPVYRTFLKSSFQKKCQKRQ
Description: KDM AlphaScreen assay, JMJD2C.

Structures are written as SMILES. Counter-ions that a name gives are not always drawn.

Chain of PHD2 (Q9GZT9 whole entry): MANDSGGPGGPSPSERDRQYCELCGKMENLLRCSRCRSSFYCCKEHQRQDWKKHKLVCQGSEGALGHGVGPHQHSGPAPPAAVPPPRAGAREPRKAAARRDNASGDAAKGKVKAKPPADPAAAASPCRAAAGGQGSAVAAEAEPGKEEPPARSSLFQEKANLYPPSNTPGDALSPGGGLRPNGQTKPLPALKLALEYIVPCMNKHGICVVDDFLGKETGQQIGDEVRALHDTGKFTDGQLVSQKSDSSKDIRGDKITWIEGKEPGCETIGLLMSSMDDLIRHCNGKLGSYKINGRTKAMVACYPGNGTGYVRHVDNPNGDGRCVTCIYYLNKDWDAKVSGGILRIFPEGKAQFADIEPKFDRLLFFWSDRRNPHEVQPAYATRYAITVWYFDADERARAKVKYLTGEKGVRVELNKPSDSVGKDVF
Description for JMJD2A (KDM4A): (§1) Inhibition assays for PHD2 (AlphaScreen) [9], the KDMs (AlphaScreen) [17], BBOX [18] and FTO [19] were carried out as previously described. N-Terminally biotinylated 19-residue human HIF1α CODD peptide ([sequence]) used in the PHD2 inhibition assays was from GL Biochem (Shanghai). IC50 values were calculated using nonlinear regression with normalized dose-response fit using GraphPad Prism 5.
Description for JMJD2C (KDM4C): as §1

As usually defined, the IC50 is the concentration at which inhibition is half-maximal. A higher IC50 goes with lower potency. Consider `CC(C)(C)OC(=O)c1ccc(-n2[nH]cc(-n3ccnn3)c2=O)nc1` [IOX4, t-Butyl 6-(5-oxo-4-(1H-1,2,3-triazol-1-yl)-2,5-dihydro-1H-pyrazol-1-yl)nicotinate], for which, on PHD2, the “displacement of [13C]-2OG from PHD2” value is “displaces 2OG” and the “displacement of [13C]-CODD from PHD2” value is “remained bound”. This molecule yielded an IC50 against JMJD2A (KDM4A) above 20 µM. Also, the IC50 against JMJD2C (KDM4C) was above 20 µM.
For the molecule `O=C(O)c1ccc(-n2[nH]cc(-n3ccnn3)c2=O)nc1` [compound 1, 6-(5-oxo-4-(1H-1,2,3-triazol-1-yl)-2,5-dihydro-1H-pyrazol-1-yl)pyridine-3-carbocylic acid hydrochloride], the IC50 against JMJD2A (KDM4A) and against JMJD2C (KDM4C) was above 20 µM each time.
For `O=C(O)CNC(=O)c1c(O)c2ccccc2n(Cc2ccccc2)c1=O` [IOX2], at PHD2, the “displacement of [13C]-2OG from PHD2” value is on record as “displaces 2OG” and the “displacement of [13C]-CODD from PHD2” value is “not displaced”.
